Data as given in ChEMBL document CHEMBL1146747, “Novel lopinavir analogues incorporating heterocyclic replacements of six-member cyclic urea--synthesis and structure-activity relationships” (Bioorg Med Chem Lett, 2004).

Tests used:
[1] = tested on: MT4; experiment: Tested for cytopathic effect of HIVIIIB in MT-4 cells in presence of 50% human serum; assay type: functional, cell-based
[2] = target: Human immunodeficiency virus type 1 protease (Human immunodeficiency virus 1) (UniProt Q72874); experiment: Inhibitory activity (0.5 nM) against Protease

inhibition [2] [%]	SMILES	EC50 [1] [nM]
93	Cc1cccc(C)c1OCC(=O)N[C@@H](Cc1ccccc1)[C@@H](O)C[C@H](Cc1ccccc1)NC(=O)[C@H](C(C)C)N1CCNC1=O	70
63	Cc1cccc(C)c1OCC(=O)N[C@@H](Cc1ccccc1)[C@@H](O)C[C@H](Cc1ccccc1)NC(=O)[C@H](C(C)C)N1CCN=C1S	3800
73	Cc1cccc(C)c1OCC(=O)N[C@@H](Cc1ccccc1)[C@@H](O)C[C@H](Cc1ccccc1)NC(=O)[C@H](C(C)C)N1CCNC(=O)C1=O	3050
100	Cc1cccc(C)c1OCC(=O)N[C@@H](Cc1ccccc1)[C@@H](O)C[C@H](Cc1ccccc1)NC(=O)[C@H](C(C)C)N1CCC(=O)NC1=O	140

Continued, molecule first:

SMILES	inhibition [2] [%]	EC50 [1] [nM]
Cc1cccc(C)c1OCC(=O)N[C@@H](Cc1ccccc1)[C@@H](O)C[C@H](Cc1ccccc1)NC(=O)[C@H](C(C)C)N1C(=O)CCC1=O	58	2510
Cc1cccc(C)c1OCC(=O)N[C@@H](Cc1ccccc1)[C@@H](O)C[C@H](Cc1ccccc1)NC(=O)[C@H](C(C)C)N1CCCNC1=O [LOPINAVIR]		100
Cc1cccc(C)c1OCC(=O)N[C@@H](Cc1ccccc1)[C@@H](O)C[C@H](Cc1ccccc1)NC(=O)[C@H](C(C)C)N1CCCC1=O	87	310
Cc1cccc(C)c1OCC(=O)N[C@@H](Cc1ccccc1)[C@@H](O)C[C@H](Cc1ccccc1)NC(=O)[C@H](C(C)C)N1CCOC1=O	87	110
Cc1cccc(C)c1OCC(=O)N[C@@H](Cc1ccccc1)[C@@H](O)C[C@H](Cc1ccccc1)NC(=O)[C@H](C(C)C)N1CCCN(C)C1=O	80	1060
Cc1cccc(C)c1OCC(=O)N[C@@H](Cc1ccccc1)[C@@H](O)C[C@H](Cc1ccccc1)NC(=O)[C@H](C(C)C)N1CCCOC1=O	85	270
